From patent publication US20250011307A1, “CRYSTALLINE FORMS OF BIARYL YAP/TAZ-TEAD PROTEIN-PROTEIN INTERACTION INHIBITORS” (Novartis AG, priority 2021, published 2025)

Key:
Format in all cases: physicochemical
[1] = Solubility after equilibration at 25° C. for 24 h, with final pH and XRPD of solid residues; conditions: Compound A forms
[2] = Hygroscopicity (loss on drying by TGA and XRPD, as is and after storage at 92% / 80% RH); conditions: Compound A forms; for Loss on drying by TGA [%]: TGA temperature per cell: Modification A 110° C., amorphous 119° C., 4-hydroxybenzoate 200° C.
[3] = Solid state bulk stability stress test (HPLC degradation products, color, XRPD); design: key to CL color: A: No change; B: Slight discoloration; C: Medium discoloration; D: Strong discoloration; conditions: Compound A forms
[4] = Xenon light stress test of bulk (HPLC degradation products, color, XRPD); design: key to CL color: A: No change; B: Slight discoloration; C: Medium discoloration; D: Strong discoloration; conditions: Compound A forms, Xenon light (1200 kLuxh, 25° C.)
Method: (§1) X-ray powder diffraction (XRPD) patterns were obtained using a Bruker Advance D8 in reflection geometry. Powders were analyzed using a zero background Si flat sample holder. The radiation used was Cu Kα (A=1.5418 Å). Patterns were measured between 2° and 40° 2theta. • Sample amount: 5-10 mg • Sample holder: zero background Si flat sample holder
as §1, with “radiation” for “radiation used”, “(λ=1.5418” for “(A=1.5418”

Structure (SMILES): CNC(=O)c1cnc(OCCO)c(F)c1-c1c(Cl)c(F)cc2c1C[C@](c1ccccc1)([C@@H]1CCCN1)O2 [Compound A Free form amorphous, 4-((2S,4S)-5-Chloro-6-fluoro-2-phenyl-2-((S)-pyrrolidin-2-yl)-2,3-dihydrobenzofuran-4-yl)-5-fluoro-6-(2-hydroxyethoxy)-N-methylnicotinamide]
- final pH ([1]; FaSSIF V2 pH 6.5): (7.98)
- Sol. (solubility) ([1]; FaSSIF V2 pH 6.5, target concentration 20 mg/10 mL): >2, mg/mL
- final pH ([1]; FeSSIF V2 pH 5.8): (5.93)
- Sol. (solubility) ([1]; FeSSIF V2 pH 5.8, target concentration 20 mg/10 mL): >2 mg/mL
- final pH ([1]; SGF pH 2.0): (2.37)
- Sol. (solubility) ([1]; SGF pH 2.0, target concentration 20 mg/10 mL): >2, mg/mL
- final pH ([1]; Water): (9.26)
- Sol. (solubility) ([1]; Water, target concentration 20 mg/10 mL): 0.28, mg/mL
- final pH ([1]; pH 1.2, 100 mM HCl): (1.19)
- Sol. (solubility) ([1]; pH 1.2, 100 mM HCl, target concentration 20 mg/10 mL): >2 mg/mL
- final pH ([1]; pH 3.0, 50 mM citrate buffer): (3.13)
- Sol. (solubility) ([1]; pH 3.0, 50 mM citrate buffer, target concentration 20 mg/10 mL): >2, mg/mL
- final pH ([1]; pH 4.7, 50 mM acetate buffer): (4.89)
- Sol. (solubility) ([1]; pH 4.7, 50 mM acetate buffer, target concentration 20 mg/10 mL): >2, mg/mL
- final pH ([1]; pH 6.8, 50 mM phosphate buffer): (6.97)
- final pH ([1]; pH 6.8, 50 mM phosphate buffer with 50 mM Na taurocholate): (6.87)
- Sol. (solubility) ([1]; pH 6.8, 50 mM phosphate buffer with 50 mM Na taurocholate, target concentration 20 mg/10 mL): >2, mg/mL
- Sol. (solubility) ([1]; pH 6.8, 50 mM phosphate buffer, target concentration 20 mg/10 mL): >2, mg/mL
- XRPD ([2]; After 1 day at 80% RH): No change
- Loss on drying by TGA [%] ([2]; After 1 day at 80% RH): 2.0% (119° C.)
- XRPD ([2]; After 1 day at 92% RH): No change
- Loss on drying by TGA [%] ([2]; After 1 day at 92% RH): 2.5% (119° C.)
- Loss on drying by TGA [%] ([2]; Hygroscopicity, before RH storage): 1.1% (119° C.)
- Bulk (XRPD) ([3]; 2 weeks 50° C./75% RH): No change
- CL color ([3]; 2 weeks 50° C./75% RH): A
- DP[%] degradation products, Bulk (HPLC) ([3]; 2 weeks 50° C./75% RH): 2.1%
- Bulk (XRPD) ([3]; 2 weeks 80° C., 11% RH): No change
- CL color ([3]; 2 weeks 80° C., 11% RH): A
- DP[%] degradation products, Bulk (HPLC) ([3]; 2 weeks 80° C., 11% RH): 5.5%
- Bulk (XRPD) ([3]; 2 weeks 80° C./75% RH): gel
- DP[%] degradation products, Bulk (HPLC) ([3]; 2 weeks 80° C./75% RH): 15.3%
- Bulk amber vial (XRPD) ([4]; amber vial): No change
- CL color ([4]; amber vial): A
- DP[%] degradation products, Bulk amber vial (HPLC) ([4]; amber vial): 1.0%
- Bulk clear vial (XPRD) ([4]; clear vial): No change
- CL color ([4]; clear vial): B
- DP[%] degradation products, Bulk clear vial (HPLC) ([4]; clear vial): 7.4%
